The values below come from US5328922A, “Indole ureas as 5 ht receptor antagonist” (priority 1990, dated 1994).

For experiment [1], the system named is rat stomach fundus serotonin receptor. Conditions: P. Fludzinski et. al., J. Med. Chem. 1986 29 2415-2418; cited from earlier work.
Experiment [2] can be described thus: Social Interaction Test (potential anxiolytic properties). It is filed as in vivo, rat. Conditions: male rats; p.o. 1 h pretest; doses of 2-40 mg/kg. The text has this: Potential anxiolytic properties have been evaluated using the social interaction test based on that described by File (1980 J. Neurosci. Meth., 2, 219). Active social interaction between male rats is usually quantitated by counting interactive behaviours such as following, grooming, sniffing, climbing over or under, biting, mounting and boxing. This behaviour is supressed when the rats encounter each other in an environment which is novel and brightly lit. Under these circumstances anxiolytic drugs will enhance the level of social interaction.
Rats were housed in groups of 8 in a holding room adjacent to the experimental chamber for 8 days. They were then housed singly in the same room for 3 days prior to the experimental day. On the experimental day rats were injected p.o. 1 h pretest with vehicle or drug in pairs at 15 min intervals beginning at 10.00 am. 60 Mins later they were placed with a weight matched pair mate (encountered for the first time) in the social interaction box in a separate room. The box was made of while perspex 54×37×26 cm with no lid. The floor was divided into 24 equal squares and the cage was brightly lit. Active social interaction was scored blind over the next 15 min by remote video monitoring to give total interaction scores. The number of squares crossed by each rat was also scored and summed. […]

The target in experiment [3] is T1, 5-HT1C binding site (Sus scrofa, UniProt K7GSR7).
T1 construct: Pooled pig choroid plexi were homogenised; from tissue; host or cells: pig choroid plexus membranes
T1 sequence (K7GSR7 1-457): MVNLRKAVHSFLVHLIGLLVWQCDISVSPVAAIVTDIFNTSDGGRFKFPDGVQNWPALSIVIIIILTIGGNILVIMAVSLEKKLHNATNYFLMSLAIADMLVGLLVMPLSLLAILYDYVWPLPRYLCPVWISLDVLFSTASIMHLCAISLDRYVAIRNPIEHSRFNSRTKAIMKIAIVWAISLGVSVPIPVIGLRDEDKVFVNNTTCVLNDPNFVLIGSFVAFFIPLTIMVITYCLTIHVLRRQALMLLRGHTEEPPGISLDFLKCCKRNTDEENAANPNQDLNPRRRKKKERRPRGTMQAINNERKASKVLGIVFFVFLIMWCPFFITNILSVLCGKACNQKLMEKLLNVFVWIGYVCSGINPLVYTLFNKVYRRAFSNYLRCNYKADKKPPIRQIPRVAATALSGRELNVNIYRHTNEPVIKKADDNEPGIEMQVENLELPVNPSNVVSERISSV
In words: [^3 H]-mesulergine binding to pig choroid plexus membranes in vitro. The text has this: [^3 H]-mesulergine binding to pig choroid plexus membranes in vitro
(Curzon and Kennett, 1990; Fozard and Gray, 1989) and Alzheimer's Disease (Lawlor, 1989, J. Arch. Gen. Psychiat. Vol. 46 p.542).
The affinity of test drugs for the 5-HT1C binding site can be determined by assessing their ability to displace [^3 H]-mesulergine from 5-HT1C binding sites in pig choroid plexus membranes. The method employed was similar to that of Pazos et al, 1984.
Pooled pig choroid plexi were homogenised in 20 vols of Tris HCl buffer (pH7.4) (containing 4 mM CaCl2 and 0.01% ascorbic acid) and centrifuged at 50,000 g for 15 rain at 4° C. The supernatant was removed and re-centrifuged. This was repeated a further two times with the incubation of the homogenate (37° C. for 15 min) before the final centrifugation. The final pellet was resuspended in 20 vols of buffer and stored at -70° C. until use.
The tissue suspension (50 μl) was incubated with [^3 H]-mesulergine (2 nM) in Tris HCl buffer (pH7.4) at 37° C. (containing 0.01% ascorbic acid, 4 mM CaCl2) and 3×10^-8 M spiperone for 30 minutes. Non-specific binding was measured in the presence of mianserin (10^-6 M). Six concentrations of test drug (10^-9 to 10^-4 M final concentration) were added in a volume of 50 μl. The total assay volume was 500 μl. Incubation was stopped by rapid filtration using a Skatron cell harvester and radioactivity measured by liquid scintillation spectrometry. The IC50 values were determined and the pKi (the negative logarithm of the inhibition constant) calculated from the Cheng Prusoff equation where [formula] wherein: Ki =inhibition constant.
C=concentration of [^3 H]-mesulergine
Kd=Affinity of mesulergine for 5-HT1C binding sites.
Curzon, G. A. and Kennett, G. A. (1990). TIPS, Vol. 11, 181-182. Fozard, J. R. and Gray, J. A. (1989). TIPS, Vol. 10, 307-309. Pazos, A. et al. (1984). Eur. J. Pharmacol., 106, 531-538.

The target of experiment [4] is T2, 5-HT receptor that has the characteristics of a 5-HT1C receptor (Rattus norvegicus, UniProt P30994).
T2 construct: from tissue; host or cells: rat stomach fundus strips
T2 sequence (P30994 whole entry): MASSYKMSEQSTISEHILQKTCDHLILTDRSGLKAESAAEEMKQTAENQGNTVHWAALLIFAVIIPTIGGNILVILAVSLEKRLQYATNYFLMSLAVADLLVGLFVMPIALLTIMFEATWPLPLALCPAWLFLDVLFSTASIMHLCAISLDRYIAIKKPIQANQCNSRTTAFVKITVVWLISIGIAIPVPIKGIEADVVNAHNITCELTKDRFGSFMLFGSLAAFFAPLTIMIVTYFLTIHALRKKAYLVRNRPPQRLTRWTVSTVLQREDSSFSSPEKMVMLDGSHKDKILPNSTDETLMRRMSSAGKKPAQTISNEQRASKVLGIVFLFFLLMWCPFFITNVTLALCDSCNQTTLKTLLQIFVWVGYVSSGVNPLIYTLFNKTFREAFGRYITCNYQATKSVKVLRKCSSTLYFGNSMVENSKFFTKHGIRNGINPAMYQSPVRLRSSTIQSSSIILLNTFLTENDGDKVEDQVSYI
In words: Rat stomach fundus: 5-HT1C antagonist action (inhibition of 5-HT-induced contractions). Conditions: rat stomach strips; test drug 10^-6 M for 30 mins; 5-HT dose-response; read-out: apparent dissociation constant, KB. On the procedure:
5-Hydroxytryptamine (5-HT) induces contractions of the rat stomach fundus through a 5-HT receptor that has the characteristics of a 5-HT1C receptor (Blackburn et al, 1990).
Rat stomach strips (6×4 mm) were suspended under a 4 g tension in 5 ml baths containing Tyrode solution, gassed with a mixture of 95% O2 /5% CO2. After a 1 hour equilibration period, two dose response curves were constructed to 5-HT (final concentrations, 10^-9 to 3×10^-6 M). Test drugs were then incubated at a final concentration of 10^-6 M for 30 mins and another dose-response curve constructed to 5-HT. The apparent dissociation constant of a test drug, KB, can be calculated from the equation where [formula] where B=concentration of the test drug and DR=the dose ratio (the factor by which the concentration of the agonist has to be increased in the presence of the test drug to obtain an identical effect observed in the absence of the test drug).

Experiment [5] in a line: Geller-Seifter Procedure (potential anxiolytic properties). It is filed as in vivo, rat. The conditions noted are these: rats; 30 min before testing; dose levels in the range 5-40 mg/kg p.o. On the procedure: Potential anxiolytic properties are evaluated using the Geller-Seifter procedure based on that originally described by Geller and Seifter, (1960) Psychopharmacologia, 1, 482-492.
Rats are trained on a variable interval 30 sec schedule (VI30) to press a lever in order to obtain food reward. The 5 min sessions of the VI30 schedule alternate with 2-5 min of a schedule (FR5) in which every 5th lever press is followed by presentation of a food pellet paired with a 0.5 sec mild footshock. The total study lasts approximately 30 mins. Rats typically respond with high rates of lever pressing under the VI30 schedule and low response rates under the FR5 `conflict` session. Anxiolytic drugs increase the suppressed response rates of rats in a `conflict` session.
Drugs are administered intraperitoneally or orally to groups of 3-8 rats 30 min before testing.
The results are expressed as the percentage increase in the square root of the total number of lever presses in the FR5 `conflict` session. Square root transformation is necessary to normalise the data for statistical analysis using parametric methods.

Counter-ions that a name gives are not always drawn. Like-named read-outs stand apart in the source and are kept apart here.

Take `CCc1c(C)n(C)c2ccc(NC(=O)Nc3cccc(C(F)(F)F)c3)cc12` [N-(1,2-dimethyl-3-ethyl-1H-indol-5-yl)-N'-(3-trifluoromethylphenyl)urea]: the “selectivity for the rat stomach fundus serotonin receptor” value in experiment [1] is “shows selectivity for the rat stomach fundus serotonin receptor”.

One may read the Kb as the equilibrium dissociation constant of an antagonist, usually derived from a functional assay. Take `Cl.Cn1ccc2cc(NC(=O)Nc3cccnc3)ccc21` [E2, N-(1-Methyl-1H-indol-5-yl)-N'-(3-pyridyl)urea hydrochloride]: the social interaction entry in experiment [2] is reported as “significant increase in social interaction”. Besides, the Ki in experiment [3] ([^3 H]-mesulergine 2 nM, pig choroid plexus membranes, 3×10^-8 M spiperone, pH7.4, 37° C., 30 minutes, pKi from IC50 by Cheng Prusoff equation, read-out: [^3 ]-Mesulergine pKi (converted)) was 158 nM. Also, in experiment [4], the Kb stood at 100 nM. Besides, the “responding in the `conflict` session (percentage increase in square root of total lever presses in FR5)” value in experiment [5] was “significant increase in responding in the `conflict` session”.

In experiment [3], `CCc1c(C)n(C)c2ccc(NC(=O)Nc3cccnc3)cc12` [E1, N-(1,2-Dimethyl-3-ethyl-1H-indol-5-yl)-N'-(3-pyridyl)urea hydrochloride] gave a Ki of 25.1 nM. In addition, in experiment [4], the Kb is 32 nM.

In experiment [3], `Cn1ccc2c(NC(=O)Nc3cccnc3)cccc21` [E5, N-(1-Methyl-1H-indol-4-yl)-N'-(3-pyridyl)urea hydrochloride] showed a Ki of 200 nM. Further, the antagonist equilibrium constant (Kb) in experiment [4] is 250 nM.

`Cc1c(C)n(C)c2ccc(NC(=O)Nc3cccnc3)cc12` [E3, N-(1,2,3-Trimethyl-1H-indol-5-yl)-N'-(3-pyridyl)urea hydrochloride] had a Ki in experiment [3] of 200 nM. In addition, the Kb in experiment [4] came to 25 nM.

`Cn1ccc2ccc(NC(=O)Nc3cccnc3)cc21` [E6, N-(1-Methyl-1H-indol-6-yl)-N'-(3-pyridyl)urea hydrochloride]: in experiment [3], the Ki was 316 nM. Besides, the Kb in experiment [4] stood at 170 nM.

Consider `CCCn1ccc2cc(NC(=O)Nc3cccnc3)ccc21` [E4, N-(1-Propyl-1H-indol-5-yl)-N'-(3-pyridyl)urea oxalate], for which, in experiment [3], the Ki was 200 nM. In addition, the antagonist dissociation constant (Kb) in experiment [4] was 400 nM.
